# Test results from US11285132B2, “Uses of indolinone compounds” (Oncternal Therapeutics, Inc., priority 2016, dated 2022).
# Key:
# snoRNAs = assay: Gene expression profiling (Illumina HumanHT 12) of ABC DLBCL cell lines; assay type: cell-based; settings: 500 nM, 4-8 h; two ABC DLBCL cell lines
# Method: (§1) Cell lines were exposed to YK-4-279 or TK-216, alone or in combination with other compounds, for 72 h using a Tecan D300e Digital Dispenser and 96 well plates. Cell proliferation was measured with MTT. Synergy was determined with the Chou-Talalay combination index. Gene expression profiling (GEP) was performed with the Illumina HumanHT 12 Expression BeadChips. In vivo studies were done in NOD-SCID mice and treatments started with 60 mm3 tumor volumes sc.
# With the aim to understand the mechanism of action of YK-4-279 and TK-216, the baseline RNA expression levels of the different ETS factors were correlated with sensitivity to the drugs. SPIB was the gene presenting the most significant negative correlation with both YK-4-279 and TK-216, especially among the ABC DLBCL cell lines (P<0.05). SPIB is a known oncogene for ABC DLBCL (Lenz et al, PNAS 2008) and is involved in the response to lenalidomide in ABC DLBCL (Yang et al, Cancer Cell 2012). YK-4-279 inhibits the binding of EWS1-FLI1 to the helicases RHA and DDX5 (Selvanathan et al, PNAS 2012). Thus, it was assessed whether YK-4-279 and TK-216 can have a similar effect on SPIB and whether they induce cellular effects similar to lenalidomide. […] In ABC DLBCL, the ETS inhibitor YK-4-279 and its clinical derivative TK-216 interfere with SPIB and helicases involved in RNA editing. […]
# MOLM-16 = assay: 72 hr CellTiter-Glo, AML cell line; assay type: cell-based
# HL-60 = assay: 72 hr CellTiter-Glo, AML cell line; assay type: cell-based
# THP-1 = assay: 72 hr CellTiter-Glo, AML cell line; assay type: cell-based
# MOLM-13 = assay: 72 hr CellTiter-Glo, AML cell line; assay type: cell-based
# Kasumi-1 = assay: 72 hr CellTiter-Glo, AML cell line; assay type: cell-based
# ML-2 = assay: 72 hr CellTiter-Glo, AML cell line; assay type: cell-based
# DLBCL cell lines = assay: Combination with other targeted agents, summary over DLBCL cell lines; assay type: cell-based; settings: with lenalidomide; four DLBCL cell lines (2 ABC, 2 GCB)
# Method: (§2) The latter synergism could be linked to the previously mentioned negative trend between TK-216 IC50 values and the presence of BCL2 translocation.
# as §1
# Since lenalidomide is active in mantle cell lymphoma (MCL), the synergism of the combination of TK-216 and lenalidomide was confirmed also in two MCL cell lines.
# TMD8 cells xenografts = assay: TMD8 ABC-DLBCL xenograft in NOD-SCID mice; assay type: in vivo; settings: 100 mg/Kg, BID; n=9
# Method: NOD-Scid mice subcutaneously inoculated with TMD8 cells (15×10^6) were split in two groups respectively treated with TK-216 (100 mg/kg, BID, po, n=9) and control vehicle (n=10). In each box-plot, the line in the middle of the box represents the median and the box extends from the 25th to the 75th percentile (interquartile range, IQ); the whiskers extend to the upper and lower adjacent values (i.e., ±1.5 IQ).
# 56 lymphoma cell lines [27 diffuse large B cell lymphoma (DLBCL); 10 mantle cell lymphoma; 6 marginal zone lymphoma; 5 anaplastic large T-cell lymphoma; 8 others] were exposed to TK-216 increasing doses for 72 h using a Tecan D300e Digital Dispenser and 384 well plates. Cell proliferation was measured with MTT. In vivo study was done in NOD-SCID mice; treatments were started with approximately sc 60 mm3 tumor volumes. Sensitivity was not affected by the lymphoma cell of origin (B vs T; activated B cell type DLBCL versus germinal center type DLBCL) or MYC and TP53 status. There was a non-statistically significant trend for lower sensitivity in cell lines bearing BCL2 chromosomal translocation (P=0.07, DLBCL only; P=0.06, all cell lines).
# as §2, §1
# SPIB to RHA = target: T1, SPIB to RHA (Homo sapiens, UniProt Q01892); assay: Co-IP of SPIB with helicases in ABC DLBCL cell lines; assay type: cell-based; settings: 500 nM, 4-10 h
# T1 construct: endogenous in cells
# Source text: (§3) With the aim to understand the mechanism of action of YK-4-279 and TK-216, the baseline RNA expression levels of the different ETS factors were correlated with sensitivity to the drugs. SPIB was the gene presenting the most significant negative correlation with both YK-4-279 and TK-216, especially among the ABC DLBCL cell lines (P<0.05). SPIB is a known oncogene for ABC DLBCL (Lenz et al, PNAS 2008) and is involved in the response to lenalidomide in ABC DLBCL (Yang et al, Cancer Cell 2012). YK-4-279 inhibits the binding of EWS1-FLI1 to the helicases RHA and DDX5 (Selvanathan et al, PNAS 2012). Thus, it was assessed whether YK-4-279 and TK-216 can have a similar effect on SPIB and whether they induce cellular effects similar to lenalidomide. […] In ABC DLBCL, the ETS inhibitor YK-4-279 and its clinical derivative TK-216 interfere with SPIB and helicases involved in RNA editing. Moreover, both compounds act similarly to lenalidomide inhibiting IRF4 and upregulating IRF7 and synergize with the IMID in both ABC DLBCL and MCL.
# SPIB to DDX5 = target: T2, SPIB to DDX5 (Homo sapiens, UniProt Q01892); assay: as above; assay type: cell-based; settings: 500 nM, 4-10 h
# T2 construct: endogenous in cells
# Source text: as §3
# T2 sequence (Q01892 whole entry): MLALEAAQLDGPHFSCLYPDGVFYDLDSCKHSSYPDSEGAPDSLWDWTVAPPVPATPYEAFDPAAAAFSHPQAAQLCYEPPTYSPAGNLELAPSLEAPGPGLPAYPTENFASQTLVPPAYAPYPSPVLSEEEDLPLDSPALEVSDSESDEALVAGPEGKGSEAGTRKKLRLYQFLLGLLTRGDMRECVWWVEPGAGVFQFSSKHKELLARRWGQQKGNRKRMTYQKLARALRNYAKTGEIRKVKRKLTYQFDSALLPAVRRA
# T1 sequence (Q01892 whole entry): as above
smiles,measurement,setting,value
COc1ccc(C(=O)C[C@@]2(O)C(=O)Nc3c(Cl)ccc(Cl)c32)cc1 [(S)-YK-4-279],snoRNA expression (GEP),snoRNAs,important upregulation of multiple snoRNAs
"N.N.[Cl][Pt][Cl] [Cisplatin, reference compound]",IC50,MOLM-16,2190 nM
same,IC50,HL-60,1930 nM
same,IC50,THP-1,1360 nM
same,IC50,MOLM-13,798 nM
same,IC50,Kasumi-1,4560 nM
same,IC50,ML-2,1400 nM
"COc1ccc(C(=O)CC2(O)C(=O)Nc3c(Cl)ccc(Cl)c32)cc1 (centres unmarked) [YK-4-279, 4,7-dichloro-3-hydroxy-3-(2-(4-methoxyphenyl)-2-oxoethyl)indolin-2-one, reference compound]",combination of YK-4-279 plus lenalidomide,DLBCL cell lines,synergism in both ABC DLBCL
same,tumor growth compared with control group,TMD8 cells xenografts,reduction in tumor growth
same,binding of SPIB to RHA,SPIB to RHA,decreased
same,binding of SPIB to DDX5,SPIB to DDX5,"to a lesser extent, to DDX5 was decreased"
